pKi: −log10 of the molar value.
Tests used:
Experiment in all cases: kinase activity assay (ADP-Glo or radioisotope-based), dose-response; Ki from IC50 by Cheng-Prusoff
Format in all cases: biochemical
Aurora B kinase = biological target: T1, Aurora B kinase (Homo sapiens, UniProt Q96GD4)
T1 construct: gene AURKB

PIM1 kinase = PIM1 kinase (Homo sapiens, UniProt P11309)
Aurora A kinase = biological target: T2, Aurora A kinase (Homo sapiens, UniProt O14965)
T2 construct: gene AURKA
T2 sequence (O14965 1-403): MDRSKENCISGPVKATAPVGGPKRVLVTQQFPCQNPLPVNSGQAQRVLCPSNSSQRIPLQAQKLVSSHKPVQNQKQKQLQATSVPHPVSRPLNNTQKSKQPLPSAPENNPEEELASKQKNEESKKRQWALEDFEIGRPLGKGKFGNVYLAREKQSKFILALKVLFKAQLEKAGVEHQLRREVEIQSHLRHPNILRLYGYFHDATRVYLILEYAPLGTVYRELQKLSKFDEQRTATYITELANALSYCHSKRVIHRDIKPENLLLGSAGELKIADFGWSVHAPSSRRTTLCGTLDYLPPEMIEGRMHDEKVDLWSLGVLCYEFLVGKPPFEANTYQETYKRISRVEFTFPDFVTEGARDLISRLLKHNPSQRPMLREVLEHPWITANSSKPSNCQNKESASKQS

Chain of PIM1 kinase (P11309 whole entry): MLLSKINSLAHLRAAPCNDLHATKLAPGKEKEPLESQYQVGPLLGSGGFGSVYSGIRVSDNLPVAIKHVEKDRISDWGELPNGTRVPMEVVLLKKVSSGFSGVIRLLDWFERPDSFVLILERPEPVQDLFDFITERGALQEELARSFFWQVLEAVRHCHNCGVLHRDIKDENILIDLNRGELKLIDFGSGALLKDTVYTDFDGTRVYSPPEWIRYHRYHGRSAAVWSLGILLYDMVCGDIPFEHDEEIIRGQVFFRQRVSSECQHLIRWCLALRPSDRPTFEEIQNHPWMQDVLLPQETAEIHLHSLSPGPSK
T1 sequence (Q96GD4 whole entry): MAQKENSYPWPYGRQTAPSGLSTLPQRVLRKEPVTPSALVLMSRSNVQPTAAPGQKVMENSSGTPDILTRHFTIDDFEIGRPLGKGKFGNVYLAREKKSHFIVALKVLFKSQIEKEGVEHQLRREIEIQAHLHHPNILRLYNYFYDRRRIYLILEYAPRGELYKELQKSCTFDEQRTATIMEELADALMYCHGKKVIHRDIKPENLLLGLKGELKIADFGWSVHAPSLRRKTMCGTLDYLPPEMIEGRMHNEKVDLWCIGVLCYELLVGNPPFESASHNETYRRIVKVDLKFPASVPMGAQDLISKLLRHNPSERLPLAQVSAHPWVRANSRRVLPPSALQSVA

## Cc1cc(/C=C/C#N)cc(C)c1Nc1ccnc(Nc2ccc(C#N)cc2)n1 [rilpivirine, 4-[[4-[[4-[(1E)-2-cyanoethenyl]-2,6-dimethylphenyl]amino]-2-pyrimidinyl]amino]benzonitrile]
Aurora B kinase
  pKi: 5.74
PIM1 kinase
  pKi: 6.28
Aurora A kinase
  pKi: 6.94

From publication PMC9607353, “Combined In Silico and In Vitro Evidence Supporting an Aurora A Kinase Inhibitory Role of the Anti-Viral Drug Rilpivirine and an Anti-Proliferative Influence on Cancer Cells” (Pharmaceuticals, 2022)
